Test results as given in US12264296B2, “Compositions that contain lipophilic plant material and surfactant, and related methods” (priority 2020, dated 2025).
In brackets after ≈: the same amount, converted by molar mass.

What was measured:
Format in all cases: physicochemical
[1] = Thermal stability (decarboxylation) of CBDA; conditions: in Met10u solution
[2] = Solubility of CBDA in mineral oil; conditions: oil or lipid, under certain conditions
Solubility in water = test: Solubility in water
[3] = Solubility in the amide-based surfactant DMDA (Met10u)

Compound: C=C(C)[C@@H]1CCC(C)=C[C@H]1c1c(O)cc(CCCCC)c(C(=O)O)c1O [CBDA, Δ(9)-tetrahydrocannabidiolic acid]
- temperature at which CBDA begins to lose its carboxylic moiety (decarboxylation) and become CBD [1]: at least 130 C
- solubility [2]: ~6000 µg/mL (≈ 16.7 mM)
- solubility of CBDA in water (Solubility in water; temperature of 4 degrees Celsius or lower, pH 4 or lower): below 20 micrograms per milliliter
- solubility of CBDA in water (Solubility in water; temperature of 70 degrees Celsius or higher, pH of 10 or higher): over 20 milligrams per milliliter
- solubility of CBDA in Met10u ([3]; at 0 C): 1%
- solubility of CBDA in Met10u ([3]; at 60 C): 100%
- solubility in DMDA ([3]; at 70 C): over 1000 mg/ml DMDA
